According to patent US8188064B2, “Vitamin D analogs for obesity prevention and treatment” (Wisconsin Alumni Research Foundation, priority 2003, dated 2012):
Entries after “also recorded” stand apart in the source; their conditions may differ. Like-named read-outs stand apart in the source and are kept apart here.

Experiments:
3T3-L1 cells = test: Inhibition of 3T3-L1 differentiation into mature adipocytes (Oil-Red-O staining); type: cell-based, murine; conditions: for inhibition of differentiation of 3T3-L1 cells into mature adipocytes (Oil-Red-O staining): result in words, MDI-treated cells, staining at day 10
C/EBPα mRNA = C/EBPα mRNA induction by MDI in 3T3-L1 cells (RT-PCR); type: cell-based, murine; conditions: compound present at 1×10^−8 M
Method: Analysis of C/EBPα was determined by PCR using murine primers (upstream=CGA GTA GGG GGA GCA AAA A (SEQ ID NO: 7); downstream=GCA AAA AGC MG GGA TTA GGA G (SEQ ID NO: 8)). RT-PCR was carried out as described above with 0.5 μM each primer, 2 mM MgCl2, and 1×SYBR Green master mix. The murine C/EBPα primers have a 60° C. annealing temperature and a 12 second extension time.

[1] = test system: Human promyelocytic leukemia (HL60) cells; test: HL-60 differentiation (nitro blue tetrazolium reduction); type: cell-based; conditions: concentration 1×10^−7 M
Outline: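 Four-day drug treatment of cells grown in RPMI-1640/10% FBS at 37 °C, 5% CO2, ethanol ≦0.2%; then NBT reduction, percent of 200 cells with black-blue formazan.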

[2] = Intestinal calcium transport (everted gut sac); type: in vivo; conditions: result in words, vitamin D deficient rat model, compared to 1α,25(OH)2D3
Outline: (§1)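 Male weanling Sprague-Dawley rats, vitamin D-deficient, cycled through 0.47% and 0.02% Ca diets, dosed during the last 0.02% Ca week. Four ip doses ~24 h apart; serum calcium measured 24 h after last dose. First 10 cm of intestine taken for everted gut sac calcium transport.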

SCD-1 mRNA = test: Inhibition of SCD-1 mRNA induction in 3T3-L1 cells (RT-PCR); type: cell-based, murine; conditions: for EC50: Mus musculus, 3T3-L1, 96 h, read-out: EC50 for inhibition of murine 3T3-L1 expression of SCD-1 mRNA; for inhibition of SCD-1 mRNA induction: result in words, MDI-treated 3T3-L1 cells
Description: Chomczynski, P. et al., Anal. […] NO: 4)).

[3] = Bone calcium mobilization (serum calcium on low calcium diet); type: in vivo, rat; conditions: result in words, vitamin D deficient rat model, compared to 1α,25(OH)2D3
Outline: as §1

PPARγ2 mRNA = PPARγ2 mRNA induction by MDI in 3T3-L1 cells (RT-PCR); type: cell-based, murine; conditions: compound present at 1×10^−8 M
Method: RT-PCR was carried out as described above with 0.5 μM each primer, 2 mM MgCl2, and 1×SYBR Green master mix.

[4] = Hypercalcemia / serum calcium analysis; type: in vivo, rat; conditions: normal vitamin D sufficient rats, very high oral doses
[5] = target: T1, full-length recombinant rat vitamin D receptor (Rattus norvegicus, UniProt P13053); test: Vitamin D receptor binding (competition with 3H-1,25(OH)2D3); conditions: result in words, competition for tritiated hormone binding
T1 construct: Full-length recombinant rat receptor was expressed in E. coli; histidine tag (C); made in house; host or cells: E. coli BL21(DE3) Codon Plus RIL
T1 sequence (P13053 1-423): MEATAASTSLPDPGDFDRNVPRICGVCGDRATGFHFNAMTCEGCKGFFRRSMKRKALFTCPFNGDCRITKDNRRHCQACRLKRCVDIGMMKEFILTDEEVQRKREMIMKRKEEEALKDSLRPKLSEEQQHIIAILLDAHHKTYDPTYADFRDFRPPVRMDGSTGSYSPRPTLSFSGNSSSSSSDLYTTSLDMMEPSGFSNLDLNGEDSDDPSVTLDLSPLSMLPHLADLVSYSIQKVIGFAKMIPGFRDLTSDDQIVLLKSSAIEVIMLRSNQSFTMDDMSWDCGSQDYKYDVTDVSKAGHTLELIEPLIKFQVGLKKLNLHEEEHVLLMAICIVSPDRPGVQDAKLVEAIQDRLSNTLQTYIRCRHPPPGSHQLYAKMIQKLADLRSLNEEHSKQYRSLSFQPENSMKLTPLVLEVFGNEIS
Outline: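 Purified His-tagged receptor from E. coli, diluted in TEDK50 (pH 7.4, 5 mM DTT, 150 mM KCl) with 0.1% Chaps, set so ≤20% of radioligand bound. Competition against 1 nM final 3H-1,25(OH)2D3, ethanol ≤10%, overnight on ice; bound ligand collected on hydroxylapatite, washed, counted by scintillation.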

SMILES: C=C1/C(=C\C=C2/CCC[C@]3(C)[C@@H]([C@H](C)CCCC(C)(C)O)CC[C@@H]23)C[C@@H](O)C[C@@H]1O [1α,25(OH)2D3, 1α,25-dihydroxyvitamin D3, reference compound]
- inhibition of differentiation of 3T3-L1 cells into mature adipocytes (Oil-Red-O staining) (3T3-L1 cells): inhibit; also recorded: inhibition
- C/EBPα mRNA induction by MDI (C/EBPα mRNA): not induced
- cells induced to differentiate in the NBT assay [1]: ~90%
- intestinal calcium transport activity ([2]; listed as calcitriol): quite potent; also recorded: active
- EC50 (SCD-1 mRNA): 0.2 nM
- inhibition of SCD-1 mRNA induction (SCD-1 mRNA): inhibition
- bone calcium mobilization activity ([3]; listed as calcitriol): quite potent; also recorded: active
- PPARγ mRNA induction by MDI (PPARγ2 mRNA): not induced
- increase in serum calcium [4]: frank hypercalcemia and even death

SMILES: C=C1[C@H](O)CC(=C/C=C2\CCC[C@]3(C)[C@@H]([C@@H](C)CC)CC[C@@H]23)C[C@H]1O [2-MbisP]
- binding to the vitamin D receptor, compared to 1α,25(OH)2D3 ([5]; listed as 1α-(20S)2-MbisP): nearly the same affinity
- binding to the vitamin D receptor, compared to 1α,25(OH)2D3 ([5]; listed as (20S)2-MbisP): as or nearly effective as calcitriol
- difference in potency from the native hormone in inhibiting differentiation (3T3-L1 cells; MDI-induced 3T3-L1 cells): < 0.5 log unit
- inhibition of differentiation of 3T3-L1 cells into mature adipocytes (Oil-Red-O staining) (3T3-L1 cells): inhibit; also recorded: effective
- inhibition of differentiation of 3T3-L1 cells into mature adipocytes (Oil-Red-O staining) (3T3-L1 cells; listed as 1α-(20S)2-MbisP): nearly equipotent
- inhibition of differentiation of 3T3-L1 cells into mature adipocytes (Oil-Red-O staining) (3T3-L1 cells; listed as (1α,20S)2MbisP): inhibition
- inhibition of differentiation of 3T3-L1 cells into mature adipocytes (Oil-Red-O staining) (3T3-L1 cells; listed as (20S)2-MbisP): nearly as potent as the native hormone
- inhibition of differentiation of 3T3-L1 cells into mature adipocytes (Oil-Red-O staining) (3T3-L1 cells; listed as (20S)2M-bisP): inhibition
- inhibition of differentiation of 3T3-L1 cells into mature adipocytes (Oil-Red-O staining) (3T3-L1 cells; listed as (20S)2MbisP): inhibition
- inhibition of differentiation of MDI-treated 3T3-L1 cells (oil-red-O staining) (3T3-L1 cells; tested at 1×10^−8.5 M): active
- C/EBPα mRNA induction by MDI (C/EBPα mRNA): not induced
- intestinal calcium transport activity [2]: little, if any, activity
- EC50 (SCD-1 mRNA; SCD-1 mRNA at 4 days): ~0.54 nM
- times less potent than the native hormone 1,25-(OH)2D3 (SCD-1 mRNA; inhibition of SCD-1 mRNA induction): 2 to 3 times
- inhibition of SCD-1 mRNA induction (SCD-1 mRNA; listed as (1α,20S)2MbisP): inhibition
- inhibition of SCD-1 mRNA induction (SCD-1 mRNA; listed as (20S)2-MbisP): nearly as potent as the native hormone
- inhibition of SCD1 mRNA induction (SCD-1 mRNA; tested at 1×10^−8.5 M): active
- bone calcium mobilization activity [3]: little, if any, activity
- PPARγ mRNA induction by MDI (PPARγ2 mRNA): not induced
- increase in serum calcium [4]: without producing an increase in serum calcium
